Experiment: excess molar enthalpy (molar enthalpy of mixing); xn = mol fraction of the nth substance listed
Details: Liquid

COC(=O)OC [dimethyl carbonate] + CCCCO
Flow calorimetry
Details	excess molar enthalpy [kcal/mol]
298.15 K, 1000 kPa, x1 = 0.05	0.127
298.15 K, 1000 kPa, x1 = 0.1	0.232
298.15 K, 1000 kPa, x1 = 0.15	0.317
298.15 K, 1000 kPa, x1 = 0.2	0.383
298.15 K, 1000 kPa, x1 = 0.25	0.435
298.15 K, 1000 kPa, x1 = 0.3	0.4733
298.15 K, 1000 kPa, x1 = 0.35	0.5011
298.15 K, 1000 kPa, x1 = 0.4	0.5163
298.15 K, 1000 kPa, x1 = 0.45	0.5253
298.15 K, 1000 kPa, x1 = 0.5	0.5258
298.15 K, 1000 kPa, x1 = 0.55	0.5155
298.15 K, 1000 kPa, x1 = 0.6	0.4945
298.15 K, 1000 kPa, x1 = 0.65	0.4683
298.15 K, 1000 kPa, x1 = 0.7	0.4353
298.15 K, 1000 kPa, x1 = 0.75	0.3916
298.15 K, 1000 kPa, x1 = 0.8	0.3364
298.15 K, 1000 kPa, x1 = 0.85	0.2695
298.15 K, 1000 kPa, x1 = 0.9	0.1907
298.15 K, 1000 kPa, x1 = 0.95	0.09904
313.15 K, 100 kPa, x1 = 0.049	0.125
313.15 K, 100 kPa, x1 = 0.099	0.235
313.15 K, 100 kPa, x1 = 0.149	0.329
313.15 K, 100 kPa, x1 = 0.199	0.404
313.15 K, 100 kPa, x1 = 0.25	0.4635
313.15 K, 100 kPa, x1 = 0.299	0.5061
313.15 K, 100 kPa, x1 = 0.351	0.5395
313.15 K, 100 kPa, x1 = 0.4	0.5598
313.15 K, 100 kPa, x1 = 0.449	0.5716
313.15 K, 100 kPa, x1 = 0.499	0.5732
313.15 K, 100 kPa, x1 = 0.549	0.5667
313.15 K, 100 kPa, x1 = 0.6	0.5459
313.15 K, 100 kPa, x1 = 0.651	0.5157
313.15 K, 100 kPa, x1 = 0.699	0.4762
313.15 K, 100 kPa, x1 = 0.751	0.427
313.15 K, 100 kPa, x1 = 0.8	0.368
313.15 K, 100 kPa, x1 = 0.85	0.299
313.15 K, 100 kPa, x1 = 0.899	0.204
313.15 K, 100 kPa, x1 = 0.949	0.108
313.15 K, 1000 kPa, x1 = 0.049	0.127
313.15 K, 1000 kPa, x1 = 0.099	0.238
313.15 K, 1000 kPa, x1 = 0.149	0.331
313.15 K, 1000 kPa, x1 = 0.199	0.406
313.15 K, 1000 kPa, x1 = 0.25	0.4659
313.15 K, 1000 kPa, x1 = 0.299	0.5082
313.15 K, 1000 kPa, x1 = 0.35	0.5426
313.15 K, 1000 kPa, x1 = 0.399	0.5625
313.15 K, 1000 kPa, x1 = 0.449	0.572
313.15 K, 1000 kPa, x1 = 0.499	0.5728
313.15 K, 1000 kPa, x1 = 0.549	0.5639
313.15 K, 1000 kPa, x1 = 0.6	0.5428
313.15 K, 1000 kPa, x1 = 0.651	0.5125
313.15 K, 1000 kPa, x1 = 0.699	0.4734
313.15 K, 1000 kPa, x1 = 0.751	0.4239
313.15 K, 1000 kPa, x1 = 0.8	0.368
313.15 K, 1000 kPa, x1 = 0.849	0.296
313.15 K, 1000 kPa, x1 = 0.899	0.206
313.15 K, 1000 kPa, x1 = 0.949	0.105
313.15 K, 10000 kPa, x1 = 0.049	0.124
313.15 K, 10000 kPa, x1 = 0.101	0.24
313.15 K, 10000 kPa, x1 = 0.151	0.332
313.15 K, 10000 kPa, x1 = 0.202	0.405
313.15 K, 10000 kPa, x1 = 0.249	0.4604
313.15 K, 10000 kPa, x1 = 0.3	0.5061
313.15 K, 10000 kPa, x1 = 0.349	0.5364
313.15 K, 10000 kPa, x1 = 0.401	0.5586
313.15 K, 10000 kPa, x1 = 0.451	0.5694
313.15 K, 10000 kPa, x1 = 0.501	0.5711
313.15 K, 10000 kPa, x1 = 0.551	0.5597
313.15 K, 10000 kPa, x1 = 0.602	0.5408
313.15 K, 10000 kPa, x1 = 0.65	0.513
313.15 K, 10000 kPa, x1 = 0.75	0.4247
313.15 K, 10000 kPa, x1 = 0.799	0.368
313.15 K, 10000 kPa, x1 = 0.849	0.293
313.15 K, 10000 kPa, x1 = 0.899	0.21
313.15 K, 10000 kPa, x1 = 0.949	0.105
328.15 K, 1000 kPa, x1 = 0.05	0.129
328.15 K, 1000 kPa, x1 = 0.1	0.243
328.15 K, 1000 kPa, x1 = 0.15	0.341
328.15 K, 1000 kPa, x1 = 0.2	0.418
328.15 K, 1000 kPa, x1 = 0.25	0.4826
328.15 K, 1000 kPa, x1 = 0.3	0.531
328.15 K, 1000 kPa, x1 = 0.35	0.5685
328.15 K, 1000 kPa, x1 = 0.4	0.5957
328.15 K, 1000 kPa, x1 = 0.45	0.6082
328.15 K, 1000 kPa, x1 = 0.5	0.6094
328.15 K, 1000 kPa, x1 = 0.55	0.602
328.15 K, 1000 kPa, x1 = 0.6	0.5832
328.15 K, 1000 kPa, x1 = 0.65	0.5542
328.15 K, 1000 kPa, x1 = 0.7	0.513
328.15 K, 1000 kPa, x1 = 0.75	0.4578
328.15 K, 1000 kPa, x1 = 0.8	0.3918
328.15 K, 1000 kPa, x1 = 0.85	0.3191
328.15 K, 1000 kPa, x1 = 0.9	0.2231
328.15 K, 1000 kPa, x1 = 0.95	0.114

CCCCCO [pentan-1-ol] + COC(=O)OC
Details	excess molar enthalpy [kcal/mol]
298.15 K, 1000 kPa, x2 = 0.05	0.133
298.15 K, 1000 kPa, x2 = 0.101	0.246
298.15 K, 1000 kPa, x2 = 0.151	0.334
298.15 K, 1000 kPa, x2 = 0.2	0.405
298.15 K, 1000 kPa, x2 = 0.25	0.459
298.15 K, 1000 kPa, x2 = 0.3	0.498
298.15 K, 1000 kPa, x2 = 0.35	0.524
298.15 K, 1000 kPa, x2 = 0.4	0.542
298.15 K, 1000 kPa, x2 = 0.45	0.552
298.15 K, 1000 kPa, x2 = 0.5	0.552
298.15 K, 1000 kPa, x2 = 0.55	0.541
298.15 K, 1000 kPa, x2 = 0.601	0.52
298.15 K, 1000 kPa, x2 = 0.651	0.493
298.15 K, 1000 kPa, x2 = 0.701	0.454
298.15 K, 1000 kPa, x2 = 0.75	0.403
298.15 K, 1000 kPa, x2 = 0.851	0.273
298.15 K, 1000 kPa, x2 = 0.899	0.196
298.15 K, 1000 kPa, x2 = 0.949	0.104
313.15 K, 100 kPa, x2 = 0.05	0.138
313.15 K, 100 kPa, x2 = 0.101	0.259
313.15 K, 100 kPa, x2 = 0.151	0.354
313.15 K, 100 kPa, x2 = 0.2	0.432
313.15 K, 100 kPa, x2 = 0.25	0.494
313.15 K, 100 kPa, x2 = 0.301	0.541
313.15 K, 100 kPa, x2 = 0.351	0.571
313.15 K, 100 kPa, x2 = 0.402	0.593
313.15 K, 100 kPa, x2 = 0.451	0.602
313.15 K, 100 kPa, x2 = 0.501	0.601
313.15 K, 100 kPa, x2 = 0.549	0.59
313.15 K, 100 kPa, x2 = 0.601	0.567
313.15 K, 100 kPa, x2 = 0.648	0.538
313.15 K, 100 kPa, x2 = 0.749	0.446
313.15 K, 100 kPa, x2 = 0.799	0.376
313.15 K, 100 kPa, x2 = 0.851	0.304
313.15 K, 100 kPa, x2 = 0.899	0.207
313.15 K, 100 kPa, x2 = 0.949	0.103
313.15 K, 1000 kPa, x2 = 0.05	0.134
313.15 K, 1000 kPa, x2 = 0.101	0.255
313.15 K, 1000 kPa, x2 = 0.151	0.352
313.15 K, 1000 kPa, x2 = 0.2	0.427
313.15 K, 1000 kPa, x2 = 0.25	0.49
313.15 K, 1000 kPa, x2 = 0.301	0.537
313.15 K, 1000 kPa, x2 = 0.351	0.569
313.15 K, 1000 kPa, x2 = 0.401	0.591
313.15 K, 1000 kPa, x2 = 0.45	0.601
313.15 K, 1000 kPa, x2 = 0.501	0.601
313.15 K, 1000 kPa, x2 = 0.549	0.59
313.15 K, 1000 kPa, x2 = 0.601	0.566
313.15 K, 1000 kPa, x2 = 0.652	0.536
313.15 K, 1000 kPa, x2 = 0.749	0.455
313.15 K, 1000 kPa, x2 = 0.799	0.387
313.15 K, 1000 kPa, x2 = 0.851	0.308
313.15 K, 1000 kPa, x2 = 0.899	0.225
313.15 K, 1000 kPa, x2 = 0.949	0.109
313.15 K, 10000 kPa, x2 = 0.05	0.136
313.15 K, 10000 kPa, x2 = 0.101	0.255
313.15 K, 10000 kPa, x2 = 0.151	0.352
313.15 K, 10000 kPa, x2 = 0.199	0.427
313.15 K, 10000 kPa, x2 = 0.249	0.488
313.15 K, 10000 kPa, x2 = 0.3	0.537
313.15 K, 10000 kPa, x2 = 0.349	0.569
313.15 K, 10000 kPa, x2 = 0.4	0.589
313.15 K, 10000 kPa, x2 = 0.449	0.599
313.15 K, 10000 kPa, x2 = 0.499	0.6
313.15 K, 10000 kPa, x2 = 0.551	0.588
313.15 K, 10000 kPa, x2 = 0.6	0.567
313.15 K, 10000 kPa, x2 = 0.65	0.535
313.15 K, 10000 kPa, x2 = 0.85	0.309
313.15 K, 10000 kPa, x2 = 0.899	0.222
313.15 K, 10000 kPa, x2 = 0.949	0.106
328.15 K, 1000 kPa, x2 = 0.05	0.137
328.15 K, 1000 kPa, x2 = 0.101	0.258
328.15 K, 1000 kPa, x2 = 0.151	0.356
328.15 K, 1000 kPa, x2 = 0.202	0.441
328.15 K, 1000 kPa, x2 = 0.252	0.506
328.15 K, 1000 kPa, x2 = 0.3	0.555
328.15 K, 1000 kPa, x2 = 0.35	0.592
328.15 K, 1000 kPa, x2 = 0.4	0.616
328.15 K, 1000 kPa, x2 = 0.45	0.629
328.15 K, 1000 kPa, x2 = 0.5	0.631
328.15 K, 1000 kPa, x2 = 0.55	0.622
328.15 K, 1000 kPa, x2 = 0.601	0.6
328.15 K, 1000 kPa, x2 = 0.651	0.568
328.15 K, 1000 kPa, x2 = 0.701	0.525
328.15 K, 1000 kPa, x2 = 0.75	0.471
328.15 K, 1000 kPa, x2 = 0.851	0.327
328.15 K, 1000 kPa, x2 = 0.899	0.237
328.15 K, 1000 kPa, x2 = 0.949	0.122

Source: the NIST ThermoML archive (doi:10.1016/j.jct.2005.07.011)
